Data reported in publication PMC10401832 (Biotechnology for Biofuels and Bioproducts, 2023).
Blank lines part the entries; values can stand above or below the molecule they belong to.

Assays:
GsAlaDH = biological target: T1, GsAlaDH (Geobacillus stearothermophilus, UniProt P17557); experiment: spectrophotometric NADH change at […] nm; format: biochemical; details: oxidative deamination, NAD+, Na2CO3-NaHCO3 pH 10.0; Table 1 heads this block 'Reductive reaction' but text assigns it to L-alanine
T1 construct: gene ald; possible hexamer (model)
T1 sequence (P17557 whole entry): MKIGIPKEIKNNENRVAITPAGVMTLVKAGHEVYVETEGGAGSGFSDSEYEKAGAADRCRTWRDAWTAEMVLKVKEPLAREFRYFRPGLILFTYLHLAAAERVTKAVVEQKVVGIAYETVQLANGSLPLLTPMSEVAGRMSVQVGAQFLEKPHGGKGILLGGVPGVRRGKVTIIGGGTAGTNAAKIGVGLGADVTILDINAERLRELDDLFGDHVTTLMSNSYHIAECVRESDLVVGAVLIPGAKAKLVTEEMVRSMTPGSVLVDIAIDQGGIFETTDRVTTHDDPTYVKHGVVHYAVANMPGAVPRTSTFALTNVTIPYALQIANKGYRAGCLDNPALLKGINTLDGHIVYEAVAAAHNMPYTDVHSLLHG

purified protein = substrate: CC(=O)C(=O)O; experiment: purified protein; format: biochemical, Bacillus subtilis; details: reductive amination, NADH and NH4Cl, Tris-HCl pH 8.0, Table 1 heads this block 'Oxidative reaction' but text assigns it to pyruvate

Km (GsAlaDH): 810 ± 250 µM
Molecule: C[C@H](N)C(=O)O [L-alanine]

B1: BsAlaDH (Bacillus subtilis subsp. subtilis str. 168) (protein)
chain: MIIGVPKEIKNNENRVALTPGGVSQLISNGHRVLVETGAGLGSGFENEAYESAGAEIIADPKQVWDAEMVMKVKEPLPEEYVYFRKGLVLFTYLHLAAEPELAQALKDKGVTAIAYETVSEGRTLPLLTPMSEVAGRMAAQIGAQFLEKPKGGKGILLAGVPGVSRGKVTIIGGGVVGTNAAKMAVGLGADVTIIDLNADRLRQLDDIFGHQIKTLISNPVNIADAVAEADLLICAVLIPGAKAPTLVTEEMVKQMKPGSVIVDVAIDQGGIVETVDHITTHDQPTYEKHGVVHYAVANMPGAVPRTSTIALTNVTVPYALQIANKGAVKALADNTALRAGLNTANGHVTYEAVARDLGYEYVPAEKALQDESSVAGA
notes: primers imply N-term MIIGVP, C-term SVAGA; about 45-55 kDa; possible hexamer (model)
Km (purified protein): 70 ± 30 µM
